Experimental data reported in patent US12441691B2 (Cytokinetics, Inc., priority 2020, dated 2025).

System: rabbit skeletal myofibrils (fast skeletal myofibrils)
Test: Activation of fast skeletal myofibrils (PUMA assay, AC1.4)
Type: biochemical
Conditions: calcium at pCa25, AC1.4 = concentration at which the compound increased the enzymatic activity
Method: Preparation of fast skeletal myofibrils: Rabbit skeletal myofibrils were prepared based upon the method of Herrmann et al. (Biochem. 32(28):7255-7263(1993). Myofibrils were prepared from rabbit psoas muscle purchased from Pel-Freez Biologicals (Arkansas) within 2 days of ordering, stored on ice. Minced muscle was homogenized in 10 volumes of ice-cold “standard” buffer (50 mM Tris, pH 7.4, 0.1 M KOAc, 5 mM KCl, 2 mM dithiothreitol (DTT), 0.2 mM phenylmethylsulfonyl fluoride (PMSF), 10 μM leupeptin, 5 μM pepstatin, and 0.5 mM sodium azide) containing 5 mM ethylenediaminetetraacetic acid (EDTA) and 0.5% Triton X-100 using an Omni-Macro homogenizer. Myofibrils were recovered by low speed centrifugation (3000 rpm for 10 minutes) and washed 2 times in the Triton X-100 containing buffer to ensure removal of cellular membrane. Following the Triton washes, myofibrils were washed 3 times in “standard” buffer containing 2 mM magnesium acetate. A final wash in assay buffer (12 mM piperazine-1,4-bis(2-ethanesulfonic acid) (PIPES), pH 6.8, 60 mM KCl, 1 mM DTT) was performed and brought to 10% sucrose for flash freezing in liquid nitrogen and storage at −80° C.
Activation of Fast Skeletal Myofibrils: Fast fiber activators were identified by measuring the enzymatic activity of muscle myofibril preparations using the proprietary PUMA (trademark) (see, e.g., U.S. Pat. Nos. 6,410,254, 6,743,599, 7,202,051, and 7,378,254) assay system. Myofibril preparations consisted of rabbit skeletal muscle (approximately 90% fast fibers) that had been mechanically homogenized and washed with a detergent (Triton X-100) to remove cellular membranes. This preparation retained all of the sarcomeric components in a native conformation and the enzymatic activity was still regulated by calcium. Compounds were tested using a myofibril suspension and a level of calcium sufficient to increase enzymatic activity of the myofibrils to 25% of their maximal rate (termed pCa25). Enzymatic activity was tracked via a pyruvate kinase and lactate dehydrogenase-coupled enzyme system. This assay regenerates myosin-produced ADP into ATP by oxidizing NADH, producing an absorbance change at 340 nm. The buffering system was 12 mM PIPES, 2 mM MgCl2, 1 mM DTT at pH 6.8 (PM12 buffer). […] In Table 9, “Example Compound” refers to the compound labeled with the same number in Table 2.

Compared with CC[C@H](C)[C@H]1C(=O)Nc2ccccc2[C@@H]2COC(=O)N12 (single isomer, unassigned) [Compound 36], CC[C@H](C)[C@H]1C(=O)Nc2ccccc2[C@H](C)N1C(N)=O (single isomer, unassigned) [Compound 39] is 1.9-fold higher in AC1.4: 0.09 µM for the first, 0.17 µM for the second.

First: CC[C@H](C)[C@H]1C(=O)Nc2ccccc2[C@H](CO)N1C(N)=O (single isomer, unassigned) [Compound 37]
Second: CC[C@H](C)[C@H]1C(=O)Nc2ccccc2C(C(=O)NC)N1C(N)=O (stereo partly drawn) [Compound 40, (3S)-3-((S)-sec-Butyl)-N^5-methyl-2-oxo-1,2,3,5-tetrahydro-4H-benzo[e][1,4]diazepine-4,5-dicarboxamide]
The AC1.4 of the first is 9.9-fold lower: 0.26 µM for the first, 2.57 µM for the second.

CC[C@H](C)[C@H]1C(=O)Nc2ccccc2[C@H](C)N1C(=O)c1cnn(C)c1 (single isomer, unassigned) [Compound 38] and CC[C@H](C)[C@H]1C(=O)Nc2ccccc2[C@@H](C(=O)OC)N1C(=O)c1cnn(C)c1 (single isomer, unassigned) [Compound 321] are within 1.5-fold of each other in AC1.4: 0.10 µM for the first, 0.12 µM for the second.

First: CC[C@H](C)[C@H]1C(=O)Nc2ccccc2CN1c1nccc(=O)[nH]1 [Compound 3, (S)-3-((S)-sec-Butyl)-4-(6-oxo-1,6-dihydropyrimidin-2-yl)-1,3,4,5-tetrahydro-2H-benzo[e][1,4]diazepin-2-one]
Second: CC[C@H](C)[C@H]1C(=O)Nc2ccccc2CN1c1nc(O)cc(=O)[nH]1 [Compound 23, (S)-3-((S)-sec-Butyl)-4-(4-hydroxy-6-oxo-1,6-dihydropyrimidin-2-yl)-1,3,4,5-tetrahydro-2H-benzo[e][1,4]diazepin-2-one]
The AC1.4 of the first is 1.8-fold lower: 0.09 µM for the first, 0.16 µM for the second.

First: CC[C@H](C)[C@H]1C(=O)Nc2ccccc2CN1c1nn[nH]n1 [Compound 4, (S)-3-((S)-sec-Butyl)-4-(2H-tetrazol-5-yl)-1,3,4,5-tetrahydro-2H-benzo[e][1,4]diazepin-2-one]
Second: CC[C@H](C)[C@H]1C(=O)Nc2ccccc2CN1c1noc(=O)[nH]1 [Compound 25, 3-((S)-3-((S)-sec-Butyl)-2-oxo-1,2,3,5-tetrahydro-4H-benzo[e][1,4]diazepin-4-yl)-1,2,4-oxadiazol-5(4H)-one]
The AC1.4 of the first is 1.8-fold higher: 0.21 µM for the first, 0.12 µM for the second.

Compared with CC[C@H](C)[C@H]1C(=O)Nc2ccccc2CN1C(N)=O [Compound 5, (S)-3-((S)-sec-Butyl)-2-oxo-1,2,3,5-tetrahydro-4H-benzo[e][1,4]diazepine-4-carboxamide], CC[C@H](C)[C@H]1C(=O)Nc2ccccc2CN1C(C)=O [Compound 15, (S)-4-Acetyl-3-((S)-sec-butyl)-1,3,4,5-tetrahydro-2H-benzo[e][1,4]diazepin-2-one] is 3.4-fold higher in AC1.4: 0.08 µM for the first, 0.27 µM for the second.

CC[C@H](C)[C@H]1C(=O)Nc2cncnc2CN1C(N)=O [Compound 11, (S)-7-((S)-sec-Butyl)-6-oxo-5,6,7,9-tetrahydro-8H-pyrimido[5,4-e][1,4]diazepine-8-carboxamide] and CC[C@H](C)[C@H]1C(=O)Nc2cc(F)cnc2CN1C(N)=O [Compound 13, (S)-3-((S)-sec-Butyl)-8-fluoro-2-oxo-1,2,3,5-tetrahydro-4H-pyrido[3,2-e][1,4]diazepine-4-carboxamide] are within 1.5-fold of each other in AC1.4: 1.30 µM for the first, 1.03 µM for the second.

Going from CC[C@H](C)[C@H]1C(=O)Nc2ccccc2-c2cnc(O)n21 [Compound 14, (S)-5-((S)-sec-Butyl)-3-hydroxy-5H-benzo[f]imidazo[1,5-d][1,4]diazepin-6(7H)-one] to CC[C@H](C)[C@H]1C(=O)Nc2ccccc2CN1c1nccs1 [Compound 35, (3S)-3-[(2S)-Butan-2-yl]-4-(1,3-thiazol-2-yl)-1,3,4,5-tetrahydro-2H-1,4-benzodiazepin-2-one], the AC1.4 falls from 0.15 µM to 0.07 µM (2.1-fold).

First: CC[C@H](C)[C@H]1C(=O)Nc2ccccc2CN1C(=O)c1cnn(CCO)c1 [Compound 16, (S)-3-((S)-sec-Butyl)-4-(1-(2-hydroxyethyl)-1H-pyrazole-4-carbonyl)-1,3,4,5-tetrahydro-2H-benzo[e][1,4]diazepin-2-one]
Second: CC(C)[C@H]1C(=O)Nc2ccccc2CN1C(=O)c1cnn(C)c1 [Compound 41, (S)-3-Isopropyl-4-(1-methyl-1H-pyrazole-4-carbonyl)-1,3,4,5-tetrahydro-2H-benzo[e][1,4]diazepin-2-one]
The AC1.4 of the first is 6.9-fold lower: 0.14 µM for the first, 0.96 µM for the second.

Compared with CC[C@H](C)[C@H]1C(=O)Nc2ccccc2CN1C(=O)CN [Compound 17, (S)-3-((S)-sec-Butyl)-4-glycyl-1,3,4,5-tetrahydro-2H-benzo[e][1,4]diazepin-2-one], CC[C@H](C)[C@H]1C(=O)Nc2ccccc2CN1C(=O)CO [Compound 18, (S)-3-((S)-sec-Butyl)-4-(2-hydroxyacetyl)-1,3,4,5-tetrahydro-2H-benzo[e][1,4]diazepin-2-one] is 9.1-fold lower in AC1.4: 2.83 µM for the first, 0.31 µM for the second.

Going from CC[C@H](C)[C@H]1C(=O)Nc2ccccc2CN1C(=N)N [Compound 19, (S)-3-((S)-sec-Butyl)-2-oxo-1,2,3,5-tetrahydro-4H-benzo[e][1,4]diazepine-4-carboximidamide] to CC[C@H](C)[C@H]1C(=O)Nc2ccccc2CN1C(=O)C(N)=O [Compound 33, 2-((S)-3-((S)-sec-Butyl)-2-oxo-1,2,3,5-tetrahydro-4H-benzo[e][1,4]diazepin-4-yl)-2-oxoacetamide], the AC1.4 rises from 0.13 µM to 1.14 µM (8.8-fold).

CC[C@H](C)[C@H]1C(=O)Nc2ccccc2CN1C(=O)OC [Compound 20, Methyl (S)-3-((S)-sec-butyl)-2-oxo-1,2,3,5-tetrahydro-4H-benzo[e][1,4]diazepine-4-carboxylate] and CC[C@H](C)[C@H]1C(=O)Nc2ccccc2CN1C(=O)NC [Compound 31, (S)-3-((S)-sec-Butyl)-N-methyl-2-oxo-1,2,3,5-tetrahydro-4H-benzo[e][1,4]diazepine-4-carboxamide] are within 1.5-fold of each other in AC1.4: 0.25 µM for the first, 0.21 µM for the second.

CC[C@H](C)[C@H]1C(=O)Nc2ccccc2CN1/C(=N/C#N)N(C)C [Compound 21, (S,E)-3-((S)-sec-Butyl)-N′-cyano-N,N-dimethyl-2-oxo-1,2,3,5-tetrahydro-4H-benzo[e][1,4]diazepine-4-carboximidamide] and CC[C@H](C)[C@H]1C(=O)Nc2ccccc2CN1S(=O)(=O)N(C)C [Compound 27, (S)-3-((S)-sec-Butyl)-N,N-dimethyl-2-oxo-1,2,3,5-tetrahydro-4H-benzo[e][1,4]diazepine-4-sulfonamide] are within 1.5-fold of each other in AC1.4: 0.18 µM for the first, 0.23 µM for the second.

Going from CC[C@H](C)[C@H]1C(=O)Nc2ccccc2CN1/C(N)=N/C(=O)OC [Compound 22, Methyl ((E)-amino((S)-3-((S)-sec-butyl)-2-oxo-1,2,3,5-tetrahydro-4H-benzo[e][1,4]diazepin-4-yl)methylene)carbamate] to CC[C@H](C)[C@H]1C(=O)Nc2ccccc2CN1S(C)(=O)=O [Compound 26, (S)-3-((S)-sec-Butyl)-4-(methylsulfonyl)-1,3,4,5-tetrahydro-2H-benzo[e][1,4]diazepin-2-one], the AC1.4 rises from 0.07 µM to 0.78 µM (11-fold).

CC[C@H](C)[C@H]1C(=O)Nc2ccccc2CN1c1ncc(N)c(=O)[nH]1 [Compound 24, (S)-4-(5-Amino-4-hydroxypyrimidin-2-yl)-3-((S)-sec-butyl)-1,3,4,5-tetrahydro-2H-benzo[e][1,4]diazepin-2-one] and CC[C@H](C)[C@H]1C(=O)Nc2ccccc2CN1c1nc(C)ns1 [Compound 34, (S)-3-((S)-sec-Butyl)-4-(3-methyl-1,2,4-thiadiazol-5-yl)-1,3,4,5-tetrahydro-2H-benzo[e][1,4]diazepin-2-one] are within 1.5-fold of each other in AC1.4: 0.08 µM for the first, 0.09 µM for the second.

CC(=O)N1Cc2ccccc2NC(=O)[C@@H]1C1CCCCC1 [Compound 28, (S)-4-acetyl-3-cyclohexyl-1,3,4,5-tetrahydro-2H-benzo[e][1,4]diazepin-2-one] and NC(=O)N1Cc2ccccc2NC(=O)[C@@H]1C1CCCCC1 [Compound 29, (S)-3-Cyclohexyl-2-oxo-1,2,3,5-tetrahydro-4H-benzo[e][1,4]diazepine-4-carboxamide] are within 1.5-fold of each other in AC1.4: 0.28 µM for the first, 0.22 µM for the second.

Compared with CC[C@H](C)[C@H]1C(=O)Nc2ccccc2CN1c1c(N2CC(O)C2)c(=O)c1=O [Compound 30, 3-((S)-3-((S)-sec-Butyl)-2-oxo-1,2,3,5-tetrahydro-4H-benzo[e][1,4]diazepin-4-yl)-4-(3-hydroxyazetidin-1-yl)cyclobut-3-ene-1,2-dione], CC[C@H](C)[C@H]1C(=O)Nc2cc(F)ccc2CN1C(=O)CO [Compound 42, (S)-3-((S)-sec-butyl)-8-fluoro-4-(2-hydroxyacetyl)-1,3,4,5-tetrahydro-2H-benzo[e][1,4]diazepin-2-one] is 4.1-fold higher in AC1.4: 0.08 µM for the first, 0.33 µM for the second.
